Reference: PubChem BioAssay (NCI)
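Briefly, cells in 96-well plates were exposed to five compound concentrations for 48 h, and endpoints were estimated by linear interpolation. The concentration for full growth arrest is given as TGI.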

Columns and labels:
Assay in all cases: DTP human tumour cell line panel, 48 h
OVCAR-8 ovarian = test system: OVCAR-8 ovarian
M14 melanoma = test system: M14 melanoma
SF-295 CNS = test system: SF-295 CNS
HCT-15 colon = test system: HCT-15 colon
SF-268 CNS = test system: SF-268 CNS
SK-OV-3 ovarian = test system: SK-OV-3 ovarian
MDA-MB-435 = test system: MDA-MB-435
HOP-92 NSCLC = test system: HOP-92 NSCLC
OVCAR-5 ovarian = test system: OVCAR-5 ovarian
SK-MEL-5 melanoma = test system: SK-MEL-5 melanoma

Row | Compound | TGI (OVCAR-8 ovarian) [µM] | TGI (M14 melanoma) [µM] | TGI (SF-295 CNS) [µM] | TGI (HCT-15 colon) [µM] | TGI (SF-268 CNS) [µM] | TGI (SK-OV-3 ovarian) [µM] | TGI (MDA-MB-435) [µM] | TGI (HOP-92 NSCLC) [µM] | TGI (OVCAR-5 ovarian) [µM] | TGI (SK-MEL-5 melanoma) [µM]
1 | CCOC(=O)N1CCC2(CC1)C[C@](Sc1ccccc1)(C(C)=O)[C@H](C)O2 | > 100 | > 100 | > 100 | > 100 | > 100 | > 100 | > 100 | > 100 | > 100 | > 100
2 | CCO/C(O)=c1/s/c(=C2/SC(=S)N(c3ccc(C)cc3)C2=O)n(-c2ccccc2)c1=N | > 100 | > 100 | 59.7 | > 100 | > 95.8 | > 76 | > 100 | > 100 | > 100 | > 100
3 | COc1ccc(Nc2nc3ccccc3nc2-c2cccs2)cc1OC | > 10 | > 10 | > 10 | > 10 | > 10 | > 10 | > 10 | > 10 | > 10 | > 10
4 | O=C1C(NS(=O)(=O)c2ccccc2)=C(n2ccnc2)C(=O)c2ccccc21 | > 100 | > 100 | > 100 | > 100 | > 100 | > 100 | > 100 | > 100 | > 100 | > 100
5 | Cc1cc2c3c(c1)S(=O)(=O)c1cc(Cl)ccc1N3CCC2 | > 100 | > 100 | > 100 | > 100 | > 100 | > 100 | > 100 | > 100 | > 100 | > 100
6 | CN(C)CC1CCC/C(=C\c2ccc(Cl)c(Cl)c2)C1=O (stereo not given) | 9.89 | 11.2 | 25.8 | 6.33 | 8.88 | 20.3 | 18.1 | 13.4 | 37.4 | 22.7
7 | CCN(CC)c1c(-c2c(OC(C)C)c(=O)c2=O)c(=O)n2ccsc2c1OC(C)=O | > 100 | > 100 | > 100 | > 100 | > 100 | > 100 | > 100 | > 100 | > 100 | > 100
8 | CCOC(=O)Cn1nnc2ccc(Nc3nc4ccccc4nc3C(=O)OCC)cc21 | > 100 | > 100 | > 100 | > 100 | > 100 | > 100 | > 100 | > 100 | > 100 | > 100
9 | O=[N+]([O-])C1=Cc2c(O)ccc(O)c2C2OC=CC12 (stereo not given) | > 56.2 | 34.5 | 32.2 | 37 | 35.5 | > 100 | 6.1 | 58.8 | 51.5 | 26.2
10 | C[C@]12CCC(=O)C=C1CC[C@@H]1[C@@H]2CC[C@]2(C)C(=O)/C(=C/c3ccc([N+](=O)[O-])cc3)C[C@@H]12 | > 100 | > 100 | > 100 | > 100 | > 100 | > 100 | > 100 | > 100 | > 100 | > 100
11 | Nc1nc(N)c2cc(-c3cc4ccccc4[nH]3)ccc2n1 | > 100 | 34.4 | 90.2 | 55 | 95.5 | > 100 | 38.6 | 35.2 | 65 | 30.2
12 | CC1=NN(c2ccccc2)C(=O)/C1=C1\SC(c2ccccc2)(c2ccccc2)c2ccccc21 | > 100 | > 100 | > 100 | > 100 | > 100 | > 100 | > 100 | > 100 | > 100 | > 100
13 | O=C(CSc1nc2ccccc2c(=O)n1-c1ccccc1)N=Nc1c(O)[nH]c2ccc(Br)cc12 | 3.99 | 6.87 | 8.93 | 30.2 | > 38.3 | 13.1 | 34 | 7.76 | 8.53 | > 20.6
14 | N#C/C=C(/NC(=O)Nc1ccccc1)N1CCCC1 | > 51.8 | > 100 | > 43.8 | > 100 | > 46.4 | > 100 | > 100 | > 62.2 | > 100 | > 100
15 | COc1nc2ncc([C@@H](OC(C)=O)[C@@H](COC(C)=O)OC(C)=O)nc2c(=O)n1C | > 100 | > 100 | > 100 | > 100 | > 100 | > 100 | > 100 | > 100 | > 100 | > 100
16 | C/C(=N/NC(=S)N1CCCCCC1)c1cccc(/C(C)=N\NC(=S)N2CCCCCC2)n1 | 3.11 | 3.53 | 4.12 | 5.36 | 9.46 | 4.1 | 3.36 | 3.58 | 5.26 | 2.72
17 | c1ccc(C/C(=N\Nc2nc3ccccc3[nH]2)c2ccccn2)cc1 | 2.08 | 0.915 | 6.78 | 15.6 | 12 | 0.413 | 11.1 | 0.653 | 8.14 | 4.65
